Data from patent publication US20230255912A1, “COMPOSITIONS AND METHODS FOR TREATING CRP-MEDIATED DISEASES” (Ponce de Leon Health Designated Activity Company, priority 2020, published 2023).
Where two headings read alike, the source gives them in different places.

Assays:
CRP = assay: Blood chemistry of a human volunteer: CRP; type: in vivo; conditions: for CRP: 1,000 mg Ca-AKG + 900 mcg Vitamin A daily, oral, baseline 4.9
Source text: METHOD EXAMPLE. Blood chemistry. […] The following results were obtained:

[1] = for Total/HDL: baseline 2.9; for Alkaline phosphatase: baseline 44; for HDL: baseline 64; for Triglycerides: baseline 85; for Glucose: baseline 95; for Cholesterol: baseline 184; for Platelets: baseline 359
Source text: METHOD EXAMPLE. Blood chemistry. […] Prior to the start of dosing, a baseline blood draw is obtained for hematology, chemistry, CRP measurement, and metabolite analyses. After the start of dosing, blood draws are obtained monthly.

inflammatory cytokines = conditions: female mice, 29 months
Protocol: METHOD EXAMPLE. Cytokine Levels in Aged Mice. Female mice (18 months) are divided into treatment and untreated groups. Baseline levels of 30 inflammatory cytokines are measured. […] Following treatment, levels of 30 inflammatory cytokines are measured from serum samples and compared to untreated controls.

[2] = compared to aged controls, p<0.05

**Q.** Which results are given for O=C(O)CCC(=O)C(=O)O [AKG, 2-oxopentanedioic acid]?
**A.** lowering of CRP (CRP; human volunteer, baseline vs 12 months): more than 10 fold; levels of triglycerides ([1]; human volunteer, vs baseline): improves; other important biological markers, such as platelets, glucose, PSA ([1]; human volunteer, vs baseline): does not adversely affect

**Q.** For O.O=C([O-])CCC(=O)C(=O)[O-].[Ca+2] [Ca-AKG, calcium alpha-ketoglutarate monohydrate], which “level of IL-3” value (inflammatory cytokines; [2]) is on record?
**A.** significantly lower

**Q.** What about the “level of IL-7” value (inflammatory cytokines; [2]) of the same molecule?
**A.** significantly lower

**Q.** What about the “level of MIP-1β” value (inflammatory cytokines; [2]) of the same molecule?
**A.** significantly lower

**Q.** What about the “level of TNF-α” value (inflammatory cytokines; [2]) of the same molecule?
**A.** significantly lower

**Q.** What about the “levels of IL-3, IL-7, TNF-α, and MIP-1β compared to the 18 month baseline” value (inflammatory cytokines; treatment group vs 18 month baseline) of the same molecule?
**A.** statistically indistinguishable

**Q.** And the CRP (CRP; 10 Months)?
**A.** 2.5 mg/L

**Q.** What about the CRP (CRP; 12 Months) of the same molecule?
**A.** 0.4 mg/L

**Q.** What about the Total/HDL ([1]; 10 Months) of the same molecule?
**A.** 2.4

**Q.** What about the Alkaline phosphatase ([1]; 10 Months) of the same molecule?
**A.** 40 U/L

**Q.** And the HDL ([1]; 10 Months)?
**A.** 76 mg/dL

**Q.** What about the Triglycerides ([1]; 10 Months) of the same molecule?
**A.** 49 mg/dL

**Q.** And the Glucose ([1]; 10 Months)?
**A.** 104 mg/dL

**Q.** What about the Cholesterol ([1]; 10 Months) of the same molecule?
**A.** 184 mg/dL

**Q.** What about the Platelets ([1]; 10 Months) of the same molecule?
**A.** 392 K/CUMM

**Q.** What about the Total/HDL ([1]; 12 Months) of the same molecule?
**A.** 2.4

**Q.** And the Alkaline phosphatase ([1]; 12 Months)?
**A.** 30 U/L

**Q.** What about the HDL ([1]; 12 Months) of the same molecule?
**A.** 76 mg/dL

**Q.** And the Triglycerides ([1]; 12 Months)?
**A.** 52 mg/dL

**Q.** What about the Glucose ([1]; 12 Months) of the same molecule?
**A.** 99 mg/dL

**Q.** What about the Cholesterol ([1]; 12 Months) of the same molecule?
**A.** 181 mg/dL

**Q.** What about the Platelets ([1]; 12 Months) of the same molecule?
**A.** 332 K/CUMM
